Tests used:
KAT-5 = KAT-5 (Homo sapiens (Human), UniProt Q92993); assay: KAT-5 biochemical inhibition assay (SAMDI mass spectrometry)
Procedure: (§1) KAT-5. Enzyme assay buffer was 50 mM Tris pH 8.0, 0.002% Tween20, 0.005% bovine skin gelatin, and 1 mM dithiothreitol (DTT). For determination of IC50 values, compounds were serially diluted with 2% (v/v) DMSO in the final reaction, pre-incubating each dilution of each compound with 40 μL of assay buffer containing KAT-5 enzyme (9 nM final concentration). 10 μL of assay buffer containing 1 μM peptide substrate and 0.5 μM acetyl coenzyme A (final concentrations) was added. Reactions (50 μL total) were then carried out at 25° C. for 90 minutes. Reactions were terminated by the addition of 0.5% formic acid (final concentration), and a sample of each reaction was analyzed by SAMDI Tech, Inc. (Chicago, Ill.) using self-assembled monolayer desorption/ionization time-of-flight mass spectrometry (Mrksich, M. (2008) Mass spectrometry of self-assembled monolayers: a new tool for molecular surface science. ACS Nano 2, 7-18).

KAT-6A = KAT-6A (Homo sapiens (Human), UniProt Q92794); assay: KAT-6A biochemical inhibition assay (SAMDI mass spectrometry)
Sequence of KAT-6A (Q92794 other isoform, or with tags, fused parts or gaps): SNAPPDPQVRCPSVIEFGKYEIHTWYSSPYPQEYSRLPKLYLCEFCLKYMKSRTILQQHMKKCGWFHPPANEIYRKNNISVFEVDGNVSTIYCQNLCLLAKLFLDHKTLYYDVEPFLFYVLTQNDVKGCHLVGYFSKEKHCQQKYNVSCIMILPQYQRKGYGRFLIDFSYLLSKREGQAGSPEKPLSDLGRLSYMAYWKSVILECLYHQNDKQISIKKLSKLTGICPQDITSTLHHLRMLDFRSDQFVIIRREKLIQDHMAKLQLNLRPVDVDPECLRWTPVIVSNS
Method in brief: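 Enzyme (12.5 nM final) pre-incubated with serially diluted compounds (2% DMSO final) in 50 mM Tris pH 8.0 with Tween20, gelatin and 1 mM DTT. Reaction started with 1 μM peptide substrate and 1 μM acetyl-CoA, run 90 min at 25 °C, quenched with 0.5% formic acid, read by SAMDI-TOF mass spectrometry; IC50 derived.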

KAT-7 = KAT-7 (Homo sapiens (Human), UniProt O95251); assay: KAT-7 biochemical inhibition assay (SAMDI mass spectrometry)
Sequence of KAT-7 (O95251 other isoform, or with tags, fused parts or gaps): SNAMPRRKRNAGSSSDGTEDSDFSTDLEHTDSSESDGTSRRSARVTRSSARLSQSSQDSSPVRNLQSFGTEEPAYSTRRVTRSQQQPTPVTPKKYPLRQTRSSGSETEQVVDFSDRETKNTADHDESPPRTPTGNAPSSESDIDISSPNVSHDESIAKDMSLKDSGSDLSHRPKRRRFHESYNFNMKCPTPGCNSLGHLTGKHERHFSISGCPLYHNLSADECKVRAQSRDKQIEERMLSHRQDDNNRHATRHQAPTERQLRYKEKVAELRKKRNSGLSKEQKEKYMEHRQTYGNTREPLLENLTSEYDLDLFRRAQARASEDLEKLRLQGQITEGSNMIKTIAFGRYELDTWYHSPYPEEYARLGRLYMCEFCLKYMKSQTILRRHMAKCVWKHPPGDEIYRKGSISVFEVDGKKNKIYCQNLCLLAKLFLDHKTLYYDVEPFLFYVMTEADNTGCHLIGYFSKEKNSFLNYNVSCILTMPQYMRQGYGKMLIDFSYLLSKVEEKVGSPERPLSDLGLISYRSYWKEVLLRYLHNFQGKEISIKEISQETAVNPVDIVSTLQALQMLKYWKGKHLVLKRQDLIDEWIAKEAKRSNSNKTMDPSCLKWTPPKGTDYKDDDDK
Procedure: as §1, with “KAT-7. Enzyme” for “KAT-5. Enzyme”, “containing KAT-7” for “containing KAT-5”, “enzyme (6” for “enzyme (9”, “and 2” for “and 0.5”, “for 120” for “for 90”

KAT-8 = KAT-8 (Homo sapiens (Human), UniProt Q9H7Z6); assay: KAT-8 biochemical inhibition assay (SAMDI mass spectrometry)
Sequence of KAT-8 (Q9H7Z6 other isoform, or with tags, fused parts or gaps): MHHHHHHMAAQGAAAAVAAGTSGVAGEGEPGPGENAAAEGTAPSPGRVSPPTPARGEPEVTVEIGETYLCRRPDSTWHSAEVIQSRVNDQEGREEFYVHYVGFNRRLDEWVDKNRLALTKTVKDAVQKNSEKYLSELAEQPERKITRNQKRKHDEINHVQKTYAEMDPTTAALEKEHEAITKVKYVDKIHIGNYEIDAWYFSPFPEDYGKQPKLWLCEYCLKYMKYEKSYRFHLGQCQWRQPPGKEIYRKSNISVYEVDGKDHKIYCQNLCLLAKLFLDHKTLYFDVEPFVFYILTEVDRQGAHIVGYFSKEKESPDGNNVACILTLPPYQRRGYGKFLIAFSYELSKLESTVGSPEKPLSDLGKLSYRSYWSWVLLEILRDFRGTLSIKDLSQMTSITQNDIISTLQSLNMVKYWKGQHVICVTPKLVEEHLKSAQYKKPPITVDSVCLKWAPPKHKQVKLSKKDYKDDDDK
Procedure: as §1, with “KAT-8. Enzyme” for “KAT-5. Enzyme”, “containing KAT-8” for “containing KAT-5”, “enzyme (12.5” for “enzyme (9”, “and 5” for “and 0.5”

Sequence of KAT-5 (Q92993 other isoform, or with tags, fused parts or gaps): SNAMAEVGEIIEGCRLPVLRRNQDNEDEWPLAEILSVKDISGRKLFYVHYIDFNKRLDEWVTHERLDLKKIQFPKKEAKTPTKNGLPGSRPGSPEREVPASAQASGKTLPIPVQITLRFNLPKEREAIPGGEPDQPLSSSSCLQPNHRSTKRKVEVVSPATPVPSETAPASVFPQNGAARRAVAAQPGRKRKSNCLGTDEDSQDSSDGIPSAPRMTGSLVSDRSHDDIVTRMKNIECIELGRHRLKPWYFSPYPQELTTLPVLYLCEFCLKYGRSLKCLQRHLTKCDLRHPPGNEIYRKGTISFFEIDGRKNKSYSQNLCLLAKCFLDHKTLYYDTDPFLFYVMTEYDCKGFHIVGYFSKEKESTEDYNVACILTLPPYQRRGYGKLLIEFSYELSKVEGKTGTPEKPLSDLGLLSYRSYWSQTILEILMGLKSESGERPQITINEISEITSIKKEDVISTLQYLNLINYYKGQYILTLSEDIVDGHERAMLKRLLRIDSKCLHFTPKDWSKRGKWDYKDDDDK

IC50 (KAT-5) | IC50 (KAT-6A) | IC50 (KAT-7) | IC50 (KAT-8) | Structure (SMILES)
< 10 µM | < 10 µM | < 10 µM | 10 to 50 µM | Cn1cnc(-c2cc(Cl)c(F)c(C(=O)NNS(=O)(=O)CC3CCC(NC(=O)N4CCCC4)C3)c2)c1 (stereo not drawn) [Compound I-346]
< 10 µM | < 10 µM | < 10 µM | 10 to 50 µM | Cn1cc(-c2cc(Cl)c(F)c(C(=O)NNS(=O)(=O)CC3CCCCC3)c2)nn1 [Compound I-55]
> 100 µM | 10 to 50 µM | 10 to 50 µM | > 100 µM | Cn1cc(-c2cc(Cl)c(F)c(C(=O)NNS(=O)(=O)C3CCOCC3)c2)nc1Cl [Compound I-8]
< 10 µM | < 10 µM | < 10 µM | 50 to 100 µM | Cn1cnc(-c2cc(Cl)c(F)c(C(=O)NNS(=O)(=O)CC3CCCC3)c2)c1 [Compound I-20]
10 to 50 µM | 10 to 50 µM | < 10 µM | > 100 µM | Cn1cnc(-c2cc(Cl)c(F)c(C(=O)NNS(=O)(=O)C3CCOCC3)c2)c1 [Compound I-9]
10 to 50 µM | 10 to 50 µM | < 10 µM | 10 to 50 µM | Cn1cnc(-c2cc(Cl)c(F)c(C(=O)NNS(=O)(=O)CC3CCCC(N)C3)c2)c1 (stereo not drawn) [Compound I-103]
50 to 100 µM | 10 to 50 µM | < 10 µM | > 100 µM | Cn1cnc(-c2cc(Cl)c(F)c(C(=O)NNS(=O)(=O)c3cnn(C)c3)c2)c1 [Compound I-65]
10 to 50 µM | 10 to 50 µM | < 10 µM | > 100 µM | Cc1nc(-c2cc(Cl)c(F)c(C(=O)NNS(=O)(=O)CC3CCOCC3)c2)cn1C [Compound I-33]
< 10 µM | < 10 µM | < 10 µM | 10 to 50 µM | CO[C@H]1CC[C@H](CS(=O)(=O)NNC(=O)c2cc(-c3cn(C)cn3)cc(Cl)c2F)CC1 [Compound I-329]
< 10 µM | < 10 µM | < 10 µM | 50 to 100 µM | COC1CCC(CS(=O)(=O)NNC(=O)c2cc(-c3cn(C)cn3)cc(Cl)c2F)C1 (stereo not drawn) [Compound I-387]
< 10 µM | < 10 µM | < 10 µM | 10 to 50 µM | CCC(=O)N[C@H]1CC[C@@H](CS(=O)(=O)NNC(=O)c2cc(-c3cn(C)cn3)cc(Cl)c2F)CC1 [Compound I-221]
10 to 50 µM | 10 to 50 µM | 10 to 50 µM | 10 to 50 µM | Cn1cnc(-c2cc(Cl)c(F)c(C(=O)NNS(=O)(=O)C[C@@H]3CCC[C@@H](N)C3)c2)c1 [Compound I-351]
< 10 µM | < 10 µM | < 10 µM | 10 to 50 µM | CN1CCN([C@H]2CC[C@H](CS(=O)(=O)NNC(=O)c3cc(-c4cn(C)cn4)cc(Cl)c3F)CC2)C1=O [Compound I-319]
< 10 µM | < 10 µM | < 10 µM | 10 to 50 µM | COc1cccc(S(=O)(=O)NNC(=O)c2cc(-c3cn(C)cn3)cc(Cl)c2F)c1 [Compound I-322]
10 to 50 µM | 10 to 50 µM | < 10 µM | 10 to 50 µM | COCCc1nc(-c2cc(Cl)c(F)c(C(=O)NNS(=O)(=O)CC3CCCCC3)c2)cn1C [Compound I-192]
< 10 µM | < 10 µM | < 10 µM | 10 to 50 µM | Cn1cnc(-c2cc(Cl)c(F)c(C(=O)NNS(=O)(=O)CC3CCC(NC(=O)N4CCC4)C3)c2)c1 (stereo not drawn) [Compound I-341]
> 100 µM | > 100 µM | > 100 µM | > 100 µM | Cc1cc(-c2cncn2C)cc(C(=O)NNS(=O)(=O)C2CCCCC2)c1F [Compound I-153]
10 to 50 µM | 10 to 50 µM | 10 to 50 µM | 10 to 50 µM | Cc1ncnn1-c1cc(Cl)c(F)c(C(=O)NNS(=O)(=O)CC2CCOCC2)c1 [Compound I-100]

IC50 (KAT-5) | IC50 (KAT-6A) | IC50 (KAT-7) | IC50 (KAT-8) | Structure (SMILES)
10 to 50 µM | 10 to 50 µM | < 10 µM | 10 to 50 µM | CN1CCC(CS(=O)(=O)NNC(=O)c2cc(-c3cn(C)cn3)cc(Cl)c2F)C1 (stereo not drawn) [Compound I-79]
< 10 µM | < 10 µM | < 10 µM | > 100 µM | Cn1cnc(-c2cc(Cl)c(F)c(C(=O)NNS(=O)(=O)C[C@@H]3CCCO3)c2)c1 [Compound I-389]
10 to 50 µM | < 10 µM | < 10 µM | 10 to 50 µM | Cn1cnc(-c2cc(Cl)c(F)c(C(=O)NNS(=O)(=O)CC3CN(C(=O)N4CCC4)C3)c2)c1 [Compound I-169]
< 10 µM | < 10 µM | < 10 µM | 10 to 50 µM | COc1ccc(CNC(=O)NC2CCC(CS(=O)(=O)NNC(=O)c3cc(-c4cn(C)cn4)cc(Cl)c3F)C2)cc1 (stereo not drawn) [Compound I-327]
< 10 µM | < 10 µM | < 10 µM | 10 to 50 µM | CCOc1ccc(S(=O)(=O)NNC(=O)c2cc(-c3cn(C)cn3)cc(Cl)c2F)cc1 [Compound I-380]
< 10 µM | < 10 µM | < 10 µM | 10 to 50 µM | Cn1cnc(-c2cc(Cl)c(F)c(C(=O)NNS(=O)(=O)Cc3ccccc3)c2)c1 [Compound I-111]
< 10 µM | < 10 µM | < 10 µM | 10 to 50 µM | CCO[C@H]1CCC[C@H](CS(=O)(=O)NNC(=O)c2cc(-c3cn(C)cn3)cc(Cl)c2F)C1 [Compound I-357]
< 10 µM | 10 to 50 µM | < 10 µM | 10 to 50 µM | C[C@@H]1CN(C(=O)OC(C)(C)C)C[C@H]1CS(=O)(=O)NNC(=O)c1cc(-c2cn(C)cn2)cc(Cl)c1F [Compound I-267]
10 to 50 µM | 10 to 50 µM | < 10 µM | 10 to 50 µM | Cn1cnc(-c2cc(Cl)c(F)c(C(=O)NNS(=O)(=O)c3cn(C)nn3)c2)c1 [Compound I-69]
< 10 µM | 10 to 50 µM | < 10 µM | 10 to 50 µM | COCCN(Cc1ccc(OC)cc1)C(=O)N1CCCC(CS(=O)(=O)NNC(=O)c2cc(-c3cn(C)cn3)cc(Cl)c2F)C1 (stereo not drawn) [Compound I-216]
< 10 µM | < 10 µM | < 10 µM | 10 to 50 µM | CN(C(=O)C1CCC1)C1CCCC(CS(=O)(=O)NNC(=O)c2cc(-c3cn(C)cn3)cc(Cl)c2F)C1 (stereo not drawn) [Compound I-295]
< 10 µM | 10 to 50 µM | < 10 µM | 10 to 50 µM | COc1ccc(CN(C)C(=O)N2CC[C@H](CS(=O)(=O)NNC(=O)c3cc(-c4cn(C)cn4)cc(Cl)c3F)C2)cc1 [Compound I-162]
< 10 µM | < 10 µM | < 10 µM | 10 to 50 µM | Cn1cnc(-c2cc(Cl)c(F)c(C(=O)NNS(=O)(=O)CC3CCC(F)(F)CC3)c2)c1 [Compound I-262]
10 to 50 µM | < 10 µM | < 10 µM | > 100 µM | CNc1ccc(S(=O)(=O)NNC(=O)c2cc(-c3cn(C)cn3)cc(Cl)c2F)cc1 [Compound I-382]
< 10 µM | < 10 µM | < 10 µM | 10 to 50 µM | Cn1cnc(-c2cc(Cl)c(F)c(C(=O)NNS(=O)(=O)c3nccs3)c2)c1 [Compound I-227]
< 10 µM | 10 to 50 µM | < 10 µM | 10 to 50 µM | CCO[C@@H]1CCC[C@H](CS(=O)(=O)NNC(=O)c2cc(-c3cn(C)cn3)cc(Cl)c2F)C1 [Compound I-356]
< 10 µM | < 10 µM | < 10 µM | 10 to 50 µM | CCCS(=O)(=O)N1CCC(CS(=O)(=O)NNC(=O)c2cc(-c3cn(C)cn3)cc(Cl)c2F)C1 (stereo not drawn) [Compound I-85]
10 to 50 µM | 10 to 50 µM | < 10 µM | 10 to 50 µM | CNC1CCCC(CS(=O)(=O)NNC(=O)c2cc(-c3cn(C)cn3)cc(Cl)c2F)C1 (stereo not drawn) [Compound I-280]

From US11685732B2, “MYST family histone acetyltransferase inhibitors” (Epizyme, Inc., priority 2017, dated 2023)
